In paper PMC8348780, “Preparation and Evaluation of Novel Folate Isonitrile ^99mTc Complexes as Potential Tumor Imaging Agents to Target Folate Receptors” (Molecules, 2021):

Legend:
[1] = Stability in saline / radiolabeling solution at room temperature (RCP by radio-HPLC); assay type: physicochemical; details: 4 h
Procedure: (§1) The complexes were determined by ITLC/SG of the ACD system and radio-HPLC. The ITLC/SG trip was cut into 10 equal parts, and radioactive counting of ITLC strips was determined by a γ-counter. ITLC results of both complexes were as follows: in ACD solution, [^99mTc]Tc-CN5FA and [^99mTc]Tc-CNPFA stayed at the origin (Rf = 0–0.1), while ^99mTcO4^− (Rf = 0.9–1.0) and ^99mTcO2·nH2O (Rf = 0.8–1.0) were moved to the front. Radio-HPLC was analyzed by a mobile phase system consisting of 0.1% TFA water (solvent A) and 0.1% TFA acetonitrile (solvent B) with a gradient of 0−2 min 10% B, 2−5 min 10%−90% B, 10−20 min 90% B, and 20−25 min 90%−10% B (system B) at a flow rate of 1 mL/min. All experiments were performed in triplicate.
(§2) The stability of [^99mTc]Tc-CN5FA and [^99mTc]Tc-CNPFA in vitro was evaluated by measuring the RCP of the complexes. Stability in saline was achieved by holding the solution at room temperature for 4 h. Stability in the serum was achieved by mixing 100 μL of [^99mTc]Tc-CN5FA or [^99mTc]Tc-CNPFA with 200 μL of mouse serum at 37 °C for 4 h. After precipitation using acetonitrile, centrifugation, and concentration, the solutions were analyzed by radio-HPLC.

[2] = Stability in mouse serum at 37 °C (RCP by radio-HPLC); assay type: in vitro ADME; details: 4 h
Procedure: as §1, §2

[3] = Partition coefficient, 1-octanol / phosphate buffer pH 7.4; assay type: physicochemical; details: 1-octanol / phosphate buffer 0.025 M
Procedure: The partition coefficient was measured as follows: 1.9 mL of phosphate buffer solution (0.025 M, pH 7.4), 2.0 mL of 1-octanol, and 0.1 mL of ^99mTc-CN5FA or ^99mTc-CNPFA solution were added to the centrifuge tube, and the sample was swirled for 5 min and centrifuged for 5 min (3000 r/min). Then, the radioactivity counts of the two phases were measured by taking 0.1 mL from the organic phase and the water phase. The partition coefficient P was calculated. The final partition coefficient was expressed as log P ± SD.

[4] = biological target: T1, folate receptor (KB cells) (Homo sapiens, UniProt P15328); assay: In vitro competitive binding with KB cells; details: 37 °C, 2 h, competitive binding with inhibitor
T1 construct: endogenous in cells; host or cells: KB cells
T1 sequence (P15328 25-257): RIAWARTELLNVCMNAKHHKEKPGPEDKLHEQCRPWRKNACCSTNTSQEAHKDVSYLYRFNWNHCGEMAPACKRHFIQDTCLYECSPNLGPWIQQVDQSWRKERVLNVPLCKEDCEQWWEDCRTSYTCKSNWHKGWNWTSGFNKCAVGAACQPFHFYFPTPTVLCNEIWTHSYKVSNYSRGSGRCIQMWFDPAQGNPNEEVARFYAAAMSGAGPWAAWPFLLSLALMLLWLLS
Procedure: KB cells were cultured with FFRPMI 1640 medium 24 h in advance on a 48-well plate with 5 × 10^4 cells per well. The labeling solution was diluted to 5 μCi/mL with the same medium after growing, and the inhibitor was prepared at different concentrations. The 48-well plates were divided into eight groups, and each group was incubated with 100 μL of inhibitor solution, 100 μL of diluted labeled solution (5 μCi/mL), and 200 μL of medium at 37 °C for 2 h.
After removing the cell plate from the incubator, the medium was removed, and the cells were washed with PBS (0.1 M, pH 7.4). The washed cells were lysed with NaOH (1 M) for 5 min. Pyrolysates were collected in the hoses, and the radioactivity count of each hose was measured by a γ-counter. The data were analyzed with GraphPad Prism 5.0 and nonlinearly fit to the log IC50 ± SD value.

KB tumor-bearing mice [5] = assay: Biodistribution study in KB tumor-bearing mice; assay type: in vivo, BALB/c nude mice; details: for Tumor uptake: KB tumor
Procedure: The biodistribution experiments were divided into normal groups and inhibition groups (n = 3), in which the inhibition group was injected with inhibitor (about 4 × 10^4 µg/kg) 30 min in advance. The KB tumor-bearing mice were decapitated 30 and 120 min after the tail vein injection of 0.1 mL labeled solution (about 7.4 × 10^4 Bq). The heart, liver, lung, kidney, spleen, stomach, bone, muscle, intestine, tumor, blood, and other related tissues and organs were wiped clean and weighed, and the radioactivity count was measured. Each tissue per gram of injection dose (%ID/g) was calculated.

KB tumor-bearing mice [6] = assay: SPECT/CT imaging study in KB tumor-bearing mice; assay type: in vivo, BALB/c nude mice; details: 2 h post injection, about 18.5 MBq i.v.
Procedure: The SPECT/CT imaging experiments were also divided into a normal group and an inhibition group (n = 3). The labeled solution (about 18.5 MBq) was injected into the tail vein of nude mice bearing KB tumor. The inhibition group was injected with 100 µg FA (about 4 × 10^4 µg/kg) 30 min in advance. After 2 h, the SPECT/CT scan was performed in anesthetized mice by using 1.5% isoflurane. The SPECT acquisition (peak value 140 keV, 20% width, 90° rotation, MMP 919 Collimator) was performed after 4 min of CT scanning (512 views, 2 × 2 binding, 75 kV, exposure time 230 ms). SPECT/CT images were made using HiSPECT software and vivoquant 2.5 software.

[7] = 2 h p.i., block: FA about 4 × 10^4 µg/kg 30 min in advance

Structure (SMILES): [99Tc+].[C-]#[N+]CCCCCC(=O)NCCNC(=O)CC[C@H](NC(=O)c1ccc(NCc2cnc3nc(N)[nH]c(=O)c3n2)cc1)C(=O)O.[C-]#[N+]CCCCCC(=O)NCCNC(=O)CC[C@H](NC(=O)c1ccc(NCc2cnc3nc(N)[nH]c(=O)c3n2)cc1)C(=O)O.[C-]#[N+]CCCCCC(=O)NCCNC(=O)CC[C@H](NC(=O)c1ccc(NCc2cnc3nc(N)[nH]c(=O)c3n2)cc1)C(=O)O.[C-]#[N+]CCCCCC(=O)NCCNC(=O)CC[C@H](NC(=O)c1ccc(NCc2cnc3nc(N)[nH]c(=O)c3n2)cc1)C(=O)O.[C-]#[N+]CCCCCC(=O)NCCNC(=O)CC[C@H](NC(=O)c1ccc(NCc2cnc3nc(N)[nH]c(=O)c3n2)cc1)C(=O)O.[C-]#[N+]CCCCCC(=O)NCCNC(=O)CC[C@H](NC(=O)c1ccc(NCc2cnc3nc(N)[nH]c(=O)c3n2)cc1)C(=O)O [[^99mTc]Tc-CN5FA]
- RCP after incubation [1]: more than 95%
- RCP after incubation [2]: more than 95%
- log P [3]: −1.92 ± 0.15
- IC50 [4]: 37.9 ± 0.41 nM
- T/B (tumor/blood ratio) (KB tumor-bearing mice [5]; 0.5 h p.i.): 1.28
- T/M (tumor/muscle ratio) (KB tumor-bearing mice [5]; 0.5 h p.i.): 1.76
- Blood uptake (KB tumor-bearing mice [5]; 0.5 h p.i., i.v., n = 3): 2.36 ± 0.10 %ID/g
- Bone uptake (KB tumor-bearing mice [5]; 0.5 h p.i., i.v., n = 3): 1.03 ± 0.09 %ID/g
- Heart uptake (KB tumor-bearing mice [5]; 0.5 h p.i., i.v., n = 3): 2.60 ± 0.16 %ID/g
- Intestines uptake (KB tumor-bearing mice [5]; 0.5 h p.i., i.v., n = 3): 2.35 ± 0.79 %ID/g
- Kidney uptake (KB tumor-bearing mice [5]; 0.5 h p.i., i.v., n = 3): 47.20 ± 2.99 %ID/g
- Liver uptake (KB tumor-bearing mice [5]; 0.5 h p.i., i.v., n = 3): 13.91 ± 1.27 %ID/g
- Lung uptake (KB tumor-bearing mice [5]; 0.5 h p.i., i.v., n = 3): 2.88 ± 0.09 %ID/g
- Muscle uptake (KB tumor-bearing mice [5]; 0.5 h p.i., i.v., n = 3): 1.72 ± 0.10 %ID/g
- Spleen uptake (KB tumor-bearing mice [5]; 0.5 h p.i., i.v., n = 3): 3.07 ± 0.03 %ID/g
- Stomach uptake (KB tumor-bearing mice [5]; 0.5 h p.i., i.v., n = 3): 2.17 ± 0.70 %ID/g
- Thyroid uptake (KB tumor-bearing mice [5]; 0.5 h p.i., i.v., n = 3): 0.05 ± 0.00 %ID
- T/M (tumor/muscle ratio) (KB tumor-bearing mice [5]; 2 h p.i.): 1.91
- Blood uptake (KB tumor-bearing mice [5]; [7]): 1.05 ± 0.08 %ID/g
- Bone uptake (KB tumor-bearing mice [5]; [7]): 1.02 ± 0.18 %ID/g
- Heart uptake (KB tumor-bearing mice [5]; [7]): 0.84 ± 0.05 %ID/g
- Intestines uptake (KB tumor-bearing mice [5]; [7]): 1.39 ± 0.15 %ID/g
- Kidney uptake (KB tumor-bearing mice [5]; [7]): 35.40 ± 4.08 %ID/g
- Liver uptake (KB tumor-bearing mice [5]; [7]): 10.22 ± 0.43 %ID/g
- Lung uptake (KB tumor-bearing mice [5]; [7]): 2.27 ± 0.16 %ID/g
- Muscle uptake (KB tumor-bearing mice [5]; [7]): 0.61 ± 0.10 %ID/g
- Spleen uptake (KB tumor-bearing mice [5]; [7]): 4.52 ± 0.38 %ID/g
- Stomach uptake (KB tumor-bearing mice [5]; [7]): 1.70 ± 0.16 %ID/g
- Thyroid uptake (KB tumor-bearing mice [5]; [7]): 0.03 ± 0.00 %ID
- Blood uptake (KB tumor-bearing mice [5]; 2 h p.i., i.v., n = 3): 1.08 ± 0.03 %ID/g
- Bone uptake (KB tumor-bearing mice [5]; 2 h p.i., i.v., n = 3): 0.87 ± 0.16 %ID/g
- Heart uptake (KB tumor-bearing mice [5]; 2 h p.i., i.v., n = 3): 2.29 ± 0.26 %ID/g
- Intestines uptake (KB tumor-bearing mice [5]; 2 h p.i., i.v., n = 3): 1.38 ± 0.15 %ID/g
- Kidney uptake (KB tumor-bearing mice [5]; 2 h p.i., i.v., n = 3): 51.92 ± 3.10 %ID/g
- Liver uptake (KB tumor-bearing mice [5]; 2 h p.i., i.v., n = 3): 11.88 ± 1.22 %ID/g
- Lung uptake (KB tumor-bearing mice [5]; 2 h p.i., i.v., n = 3): 2.78 ± 0.57 %ID/g
- Muscle uptake (KB tumor-bearing mice [5]; 2 h p.i., i.v., n = 3): 1.27 ± 0.03 %ID/g
- Spleen uptake (KB tumor-bearing mice [5]; 2 h p.i., i.v., n = 3): 3.08 ± 0.42 %ID/g
- Stomach uptake (KB tumor-bearing mice [5]; 2 h p.i., i.v., n = 3): 2.00 ± 0.33 %ID/g
- Thyroid uptake (KB tumor-bearing mice [5]; 2 h p.i., i.v., n = 3): 0.03 ± 0.01 %ID
- Tumor uptake (KB tumor-bearing mice [5]; 0.5 h p.i., i.v., n = 3): 3.03 ± 0.10 %ID/g
- Tumor uptake (KB tumor-bearing mice [5]; [7]): 1.53 ± 0.10 %ID/g
- Tumor uptake (KB tumor-bearing mice [5]; 2 h p.i., i.v., n = 3): 2.42 ± 0.44 %ID/g
- Visualization of tumor lesions by SPECT/CT (KB tumor-bearing mice [6]): clearly visualized
